# Laboratory results as given in publication PMC9820592, “Novel Chiral Ru(II) Complexes as Potential c-myc G-quadruplex DNA Stabilizers Inducing DNA Damage to Suppress Triple-Negative Breast Cancer Progression” (International Journal of Molecular Sciences, 2022).
# Several values for one entry are separate records, joined by “and”; a condition that tells them apart may be missing. Identical values can stand only once.
# Tests used:
# MDA-MB-231 cells [1] = experiment: MTT assay, MDA-MB-231 cells; assay type: cell-based, human; conditions: 72 h, read-out: Inhibitory Effect (IC50/μM) MDA-MB-231
# Protocol: (§1) Liver cancer HepG2 cells, lung cancer A549 cells, breast cancer MCF-7 and MDA-MB-231 cells, human nasopharyngeal carcinoma CNE-1 cells, and human immortalized keratinocyte HaCaT cells were seeded in 96-well plates (5 × 10^3 cells per well) and cultured at 37 °C and 5% CO2 for 24 h. Cells were treated with different concentrations of the complexes (0, 1.5625, 3.125, 6.25, 12.5, 25, 50, and 100 µM) for 72 h. After adding 20 µL MTT (5 mg/mL) solution to each well, the cells were incubated for 4 h, and then 150 µL DMSO was added to each well. The optical density of each well was detected by a microplate reader at a wavelength of 570 nm. The cell survival rate (%) = A(experimental group)/A(control group) × 100%, and the IC50 value was analyzed and calculated based on the survival rate.
# CNE-1 cells = experiment: MTT assay, CNE-1 cells; assay type: cell-based, human; conditions: 72 h, read-out: Inhibitory Effect (IC50/μM) CNE-1
# Protocol: as §1
# HaCaT cells = experiment: MTT assay, normal HaCaT keratinocytes; assay type: cell-based; conditions: 72 h, normal human keratinocytes, read-out: Inhibitory Effect (IC50/μM) HaCaT
# Protocol: as §1
# MDA-MB-231 cells [2] = experiment: EdU proliferation assay; assay type: cell-based, human; conditions: control 50.2%
# Protocol: The inhibitory effect of the chiral DPPZ-based Ru(II) complexes (Λ/Δ−1−3) was assessed against different human tumor cancer cells, such as breast cancer MCF-7, MDA-MB-231, lung cancer A549, liver carcinoma HepG2, nasopharyngeal carcinoma CNE-1, and human normal keratinocyte HaCaT cells, by MTT assay. […] Moreover, the inhibition of MDA-MB-231 cell proliferation by Δ−3 was detected by using an EdU (5-ethynyl-2′-deoxyuridine) staining kit, and EdU was incorporated into newly synthesized DNA in the sample cells. The red fluorescent azide is small enough to diffuse freely through native tissues and DNA, and it covalently cross-links to the EdU in a “click” chemistry reaction.
# MDA-MB-231 cells [3] = experiment: ICP detection of Ru content in cells; assay type: cell-based, human; conditions: 24 h, control 0.4
# Protocol: MDA-MB-231 cells were seeded in 10 cm cell culture dishes. After cell adherence, the cells were treated with the drug (0, 2.5, 5, and 10 μM) for 24 h. After 24 h, the cells were washed with PBS three times and collected by trypsin. The number of collected cells was counted by a cell counter. Then, the cells were digested in 1 mL HNO3 solution by microwave digestion at 120 °C for 3 min, and 1 mL of this solution was transferred to a 5 mL volumetric flask, diluted with distilled water to volume, and mixed. The Ru content of these solutions was analyzed by an ICP optical emission spectrometer (NCS, Plasma 2000). All measurements were repeated three times.
# MDA-MB-231 cells [4] = experiment: Wound-healing assay; assay type: cell-based, human
# Protocol: MDA-MB-231 cells (1 × 10^5 cells/well) were inoculated in a 6-well cell culture plate marked on the back until a single layer of cells covered more than 90% of the bottom of the culture plate, and a 200 µL pipette was used to scratch the culture. Different concentrations of the complexes (0, 2.5, 5, and 10 µM) were applied for 72 h. Migrating cells in the same field of view were observed and recorded every 24 h, and the average cell migration rate was calculated in three fields for every group.
# MDA-MB-231 cells [5] = experiment: FITC-gelatine invasion assay; assay type: cell-based, human; conditions: 24 h
# Protocol: An appropriate amount of FITC–gelatine glue was pipetted to cover the inner ring of the confocal cuvette, added to 0.5% glutaraldehyde for at least 30 min after solidification, and activated with 5 mg·mL^−1 sodium borohydride. Subsequently, 2 mL of cell suspension (5 × 10^4 cells) treated with different drug concentrations (0, 2.5, 5, and 10 µM) was added to each dish. The mixture was incubated at 37 °C for 24 h, and then the cells in each dish were fixed with 4% paraformaldehyde, incubated with phalloidin staining solution for 30 min and DAPI for 5 min, and imaged with a fluorescence microscope in the dark.
# MDA-MB-231 cells [6] = experiment: Immunofluorescence of paxillin and F-actin; assay type: cell-based, human; conditions: 24 h
# Protocol: (§2) MDA-MB-231 cells were inoculated in a 6-well plate containing a cover glass. On the second day, the cells were treated with different concentrations of the complex (0, 5, and 10 μM) for 24 h. The cells were fixed with 4% paraformaldehyde for 20 min, and then blocked with 5% BSA for 0.5 h at room temperature. The 1:500 anti-γH2AX antibody was diluted with 5% FBS and incubated for 1 h. The cells were incubated with lgG (H + L) for 0.5 h and treated with DAPI for 5 min. The cover glass was then transferred to a specified microscope slide and photographed with laser confocal microscopy. The antibodies used in immunofluorescence to determine invasion and metastasis were anti-paxillin antibody (ab32115), Fluor 488-conjugated IgG (H + L) (Proteintech), and rhodamine phalloidin (Amanita phalloidin, cytoskeleton).
# MDA-MB-231 cells [7] = experiment: Flow cytometry, cell cycle distribution; assay type: cell-based, human; conditions: 72 h; for G0/G1: control 63.16%
# Protocol: (§3) MDA-MB-231 cells were treated with different concentrations of the complexes (0, 10, 20, and 40 μM) for 72 h, then collected and stained with an Annexin V-FITC/PI Apoptosis Detection Kit I (BD, 556547). The MDA-MB-231 cells were fixed with 70% ethanol at 4 °C for 30 min, and then collected and stained with PI/RNase Staining Buffer (BD, 550825). The cells were analyzed by flow cytometry (Beckman, CytoFLEX). All experiments were repeated three times.
# MDA-MB-231 cells [8] = experiment: Flow cytometry, apoptosis (Annexin V-FITC/PI); assay type: cell-based, human; conditions: 72 h, control 2.77%
# Protocol: as §3
# γ-H2AX = γ-H2AX immunofluorescence; assay type: cell-based, human
# Protocol: as §2
substance,measurement,setting,value
Δ-[Ru(bpy)2(3-NBEDPPZ)](ClO4)2 [Δ−3],IC50,MDA-MB-231 cells [1],25.5 µM
same,IC50,CNE-1 cells,40.9 ± 0.53 µM
same,IC50,HaCaT cells,70.9 µM and 71 µM
same,proliferation rate (EdU),MDA-MB-231 cells [2]; 10 μM,34.9%
same,proliferation rate (EdU),MDA-MB-231 cells [2]; 20 μM,22.0%
same,proliferation rate (EdU),MDA-MB-231 cells [2]; 40 μM,5.1%
same,Ru content in cells,MDA-MB-231 cells [3]; 2.5 μM,0.52 ng/mL per 1 × 10^4 cells
same,Ru content in cells,MDA-MB-231 cells [3]; 5 μM,1.82 ng/mL per 1 × 10^4 cells
same,Ru content in cells,MDA-MB-231 cells [3]; 10 μM,2.91 ng/mL per 1 × 10^4 cells
same,migration rate (wound healing),"MDA-MB-231 cells [4]; 10 μM, different treatment times",less than half that of the control
same,migration of cells (wound healing),MDA-MB-231 cells [4]; 2.5 and 5 μM,inhibited inconspicuously
same,degraded areas (black holes) on FITC-gelatine,MDA-MB-231 cells [5]; 10 μM,did not result in a black hole
same,number of degraded areas on FITC-gelatine,"MDA-MB-231 cells [5]; 2.5 and 5 μM, control six degraded areas",markedly reduced
same,focal adhesions (paxillin) and stress fibers (F-actin),MDA-MB-231 cells [6],the amount of paxillin decreased
same,G2/M,MDA-MB-231 cells [7]; 10 μM,4.07%
same,S,MDA-MB-231 cells [7]; 10 μM,30.96%
same,SubG1,MDA-MB-231 cells [7]; 10 μM,5.40%
same,G0/G1,MDA-MB-231 cells [7]; 10 μM,64.97%
same,G2/M,MDA-MB-231 cells [7]; 20 μM,3.13%
same,S,MDA-MB-231 cells [7]; 20 μM,27.26%
same,SubG1,MDA-MB-231 cells [7]; 20 μM,4.45%
same,G0/G1,MDA-MB-231 cells [7]; 20 μM,69.61%
same,G2/M,MDA-MB-231 cells [7]; 40 μM,2.93%
same,S,MDA-MB-231 cells [7]; 40 μM,29.70%
same,SubG1,MDA-MB-231 cells [7]; 40 μM,14.97%
same,G0/G1,MDA-MB-231 cells [7]; 40 μM,67.37%
same,proportion of apoptotic cells,MDA-MB-231 cells [8]; 10 μM,5.39%
same,proportion of apoptotic cells,MDA-MB-231 cells [8]; 20 μM,7.95%
same,proportion of apoptotic cells,MDA-MB-231 cells [8]; 40 μM,16.27%
same,γ-H2AX production,γ-H2AX; 5 μM,Green fluorescence was observed
same,γ-H2AX production,γ-H2AX; 10 μM,the DNA damage was serious
